Legend:
[1] = target: T1, peripheral benzodiazepine receptors (Rattus norvegicus, UniProt P16257); experiment: Ex vivo autoradiography of rat brain; assay type: in vivo
T1 construct: from tissue
Protocol: FIGS. 1 and 2 show cerebral ex vivo autoradiograms taken in 30 minutes after [^131I]2IDAA1106 was administered to a rat. […] In particular, radioactivity levels in the olfactory bulb, choroid plexus and cerebellum decreased remarkably and were equal to or less than 20% of FIG. 1.

[2] = target: peripheral benzodiazepine receptor (PBR) (Homo sapiens, UniProt P30536); conditions: background art, Patent Documents 1 and 2; cited from earlier work
[3] = target: T2, intracerebral PBR (Homo sapiens, UniProt P30536); conditions: 11C-labeled ligand, PET, living human brain; cited from earlier work
T2 construct: In imaging the intracerebral PBR distribution of a living human brain with positron emission tomograph (PET); host or cells: living human brain (PET)

[4] = rat, brain 30 minutes after administration, FIG. 1

Chain of peripheral benzodiazepine receptor (PBR) (P30536 whole entry, species assumed): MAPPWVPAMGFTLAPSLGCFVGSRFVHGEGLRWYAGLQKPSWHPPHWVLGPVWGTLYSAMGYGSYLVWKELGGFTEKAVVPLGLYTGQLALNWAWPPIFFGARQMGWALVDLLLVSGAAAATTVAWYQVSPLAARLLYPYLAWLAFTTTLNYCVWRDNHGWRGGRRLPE
T2 sequence (P30536 whole entry): as the sequence (P30536 whole entry, species assumed) above

Row | Compound | affinity as PBR ligand [2] | selectivity as PBR ligand [2] | also measured
1 | COc1ccc([131I])c(CN(C(C)=O)c2cc(F)ccc2Oc2ccccc2)c1 [[^131I]2IDAA1106, N-(2-[^131I]iodo-5-methoxybenzyl)-N-(5-fluoro-2-phenoxyphenyl)acetamide] | – | – | specificity as radioligand ([1]; conclusion from distribution profile and DAA1106 blocking): specific to peripheral benzodiazepine receptors; radioactivity levels in the olfactory bulb, choroid plexus and cerebellum relative to FIG. 1 ([1]; rat, 30 minutes, co-administration of DAA1106, FIG. 2 as % of FIG. 1): ≤ 20%; radioactivity distribution in the whole brain when DAA1106 administered at the same time ([1]; rat, 30 minutes, co-administration of DAA1106, FIG. 2 versus FIG. 1): decreased in the whole brain; brain permeability characteristics [1, 4]: relatively high brain permeability characteristics; radioactivity distribution at the olfactory bulb, choroid plexus and cerebellum [1, 4]: relatively high radioactivity distribution
2 | COc1ccc(CF)c(CN(C(C)=O)c2cc(F)ccc2Oc2ccccc2)c1 [FMDAA1106, N-(2-fluoromethyl-5-methoxybenzyl)-N-(5-fluoro-2-phenoxyphenyl)acetamide] | strong affinity | high selectivity | –
3 | COc1ccc(OC)c(CN(C(C)=O)c2cc(F)ccc2Oc2ccccc2)c1 [DAA1106, N-(2,5-dimethoxybenzyl)-N-(5-fluoro-2-phenoxyphenyl)acetamide] | strong affinity | high selectivity | –
4 | CCC(C)N(C)C(=O)c1cc2ccccc2c(-c2ccccc2Cl)n1 (stereo not drawn) [PK 11195, N-methyl-N-(1-methylpropyl)-1-(2-chlorophenyl)-isoquinoline-3-carboxamide] | – | – | accumulation in the brain [3]: extremely low accumulation in the brain
5 | COc1ccc(OCCF)c(CN(C(C)=O)c2cc(F)ccc2Oc2ccccc2)c1 [FEDAA1106, N-[2-(2-fluoro)ethyl-5-methoxybenzyl]-N-(5-fluoro-2-phenoxyphenyl)acetamide] | strong affinity | high selectivity | –

Source: patent publication US20090234162A1, “Radioactive Halogen-Labeled Phenyloxyaniline Derivatives” (Taisho Pharmaceutical Co., Ltd., priority 2005, published 2009)
